Laboratory results taken from patent US10660877B2 (BRISTOL-MYERS SQUIBB COMPANY, priority 2016, dated 2020).
Like-named read-outs stand apart in the source and are kept apart here.

How the values were obtained:
human TLR8 = human TLR8 (Homo sapiens (Human), UniProt Q9NR97); experiment: TLR8 inhibition reporter assay (HEK-Blue cells, SEAP reporter, R848 stimulation);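 note: compounds tested from 0.05 nM to 50 µM, 22 h at 37 °C, SEAP measured with HEK-Blue Detection, inhibition relative to agonist plus DMSO versus a known inhibitor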
Sequence of human TLR8 (Q9NR97 27-1041): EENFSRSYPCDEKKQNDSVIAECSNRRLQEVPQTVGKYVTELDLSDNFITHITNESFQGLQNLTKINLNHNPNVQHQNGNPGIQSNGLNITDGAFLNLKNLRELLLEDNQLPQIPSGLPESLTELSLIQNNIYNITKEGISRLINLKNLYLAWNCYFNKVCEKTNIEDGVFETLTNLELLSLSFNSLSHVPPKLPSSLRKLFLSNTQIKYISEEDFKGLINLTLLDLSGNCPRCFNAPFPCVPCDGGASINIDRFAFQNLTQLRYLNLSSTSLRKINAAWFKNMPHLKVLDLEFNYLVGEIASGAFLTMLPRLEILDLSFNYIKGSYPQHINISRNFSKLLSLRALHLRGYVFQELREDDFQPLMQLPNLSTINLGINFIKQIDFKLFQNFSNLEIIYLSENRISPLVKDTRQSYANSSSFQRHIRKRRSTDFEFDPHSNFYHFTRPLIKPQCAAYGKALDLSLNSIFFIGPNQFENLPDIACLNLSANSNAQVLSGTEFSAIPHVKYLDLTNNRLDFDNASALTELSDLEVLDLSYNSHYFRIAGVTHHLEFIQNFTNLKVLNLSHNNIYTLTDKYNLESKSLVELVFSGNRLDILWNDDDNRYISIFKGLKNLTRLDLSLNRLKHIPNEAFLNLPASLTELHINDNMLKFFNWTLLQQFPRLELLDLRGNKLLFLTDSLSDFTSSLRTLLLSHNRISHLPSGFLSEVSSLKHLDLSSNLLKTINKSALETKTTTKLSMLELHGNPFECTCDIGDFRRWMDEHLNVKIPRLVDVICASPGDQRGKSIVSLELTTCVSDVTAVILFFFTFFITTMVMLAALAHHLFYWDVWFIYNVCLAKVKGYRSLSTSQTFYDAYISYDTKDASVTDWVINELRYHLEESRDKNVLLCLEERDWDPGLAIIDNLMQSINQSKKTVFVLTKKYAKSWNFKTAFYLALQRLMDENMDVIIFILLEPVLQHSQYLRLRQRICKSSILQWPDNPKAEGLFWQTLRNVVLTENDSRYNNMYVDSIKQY

human TLR9 = human TLR9 (Homo sapiens (Human), UniProt Q9NR96); experiment: TLR9 inhibition reporter assay (HEK-Blue cells, SEAP reporter, ODN2006 stimulation);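 note: compounds tested over 0.05 nM to 50 µM, 22 h incubation, inhibition taken as SEAP signal drop from agonist plus DMSO wells toward a known inhibitor control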
Sequence of human TLR9 (Q9NR96 26-1032): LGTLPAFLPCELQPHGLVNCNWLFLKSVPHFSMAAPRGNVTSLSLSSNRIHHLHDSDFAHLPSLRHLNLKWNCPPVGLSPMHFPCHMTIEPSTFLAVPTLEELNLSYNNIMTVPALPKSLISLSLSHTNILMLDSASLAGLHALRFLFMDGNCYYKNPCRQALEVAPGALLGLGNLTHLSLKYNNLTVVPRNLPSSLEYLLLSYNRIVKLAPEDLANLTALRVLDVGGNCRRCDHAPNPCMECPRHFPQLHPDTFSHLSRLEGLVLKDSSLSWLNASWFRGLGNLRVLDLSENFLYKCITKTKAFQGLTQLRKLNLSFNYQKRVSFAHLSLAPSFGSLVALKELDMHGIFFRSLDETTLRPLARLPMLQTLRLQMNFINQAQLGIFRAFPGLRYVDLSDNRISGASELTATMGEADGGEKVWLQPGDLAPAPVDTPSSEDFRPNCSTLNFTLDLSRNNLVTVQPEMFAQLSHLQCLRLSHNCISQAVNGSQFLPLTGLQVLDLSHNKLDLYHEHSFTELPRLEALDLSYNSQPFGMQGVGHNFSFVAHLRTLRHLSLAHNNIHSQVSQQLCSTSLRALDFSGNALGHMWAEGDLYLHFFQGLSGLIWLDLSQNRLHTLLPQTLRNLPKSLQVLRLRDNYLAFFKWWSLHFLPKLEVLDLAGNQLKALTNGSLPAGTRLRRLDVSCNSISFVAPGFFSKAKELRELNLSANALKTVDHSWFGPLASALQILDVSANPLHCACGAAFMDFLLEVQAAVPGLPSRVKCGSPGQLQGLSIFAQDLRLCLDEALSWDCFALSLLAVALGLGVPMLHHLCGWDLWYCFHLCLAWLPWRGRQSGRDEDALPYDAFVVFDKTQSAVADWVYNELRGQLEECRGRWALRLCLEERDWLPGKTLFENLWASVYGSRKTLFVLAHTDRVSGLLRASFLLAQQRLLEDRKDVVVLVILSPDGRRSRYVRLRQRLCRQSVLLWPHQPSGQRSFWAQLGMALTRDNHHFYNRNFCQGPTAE

human TLR7 = human TLR7 (Homo sapiens (Human), UniProt Q9NYK1); experiment: TLR7 inhibition reporter assay (HEK-Blue cells, SEAP reporter, gardiquimod stimulation); type: cell-based
Sequence of human TLR7 (Q9NYK1 27-1049): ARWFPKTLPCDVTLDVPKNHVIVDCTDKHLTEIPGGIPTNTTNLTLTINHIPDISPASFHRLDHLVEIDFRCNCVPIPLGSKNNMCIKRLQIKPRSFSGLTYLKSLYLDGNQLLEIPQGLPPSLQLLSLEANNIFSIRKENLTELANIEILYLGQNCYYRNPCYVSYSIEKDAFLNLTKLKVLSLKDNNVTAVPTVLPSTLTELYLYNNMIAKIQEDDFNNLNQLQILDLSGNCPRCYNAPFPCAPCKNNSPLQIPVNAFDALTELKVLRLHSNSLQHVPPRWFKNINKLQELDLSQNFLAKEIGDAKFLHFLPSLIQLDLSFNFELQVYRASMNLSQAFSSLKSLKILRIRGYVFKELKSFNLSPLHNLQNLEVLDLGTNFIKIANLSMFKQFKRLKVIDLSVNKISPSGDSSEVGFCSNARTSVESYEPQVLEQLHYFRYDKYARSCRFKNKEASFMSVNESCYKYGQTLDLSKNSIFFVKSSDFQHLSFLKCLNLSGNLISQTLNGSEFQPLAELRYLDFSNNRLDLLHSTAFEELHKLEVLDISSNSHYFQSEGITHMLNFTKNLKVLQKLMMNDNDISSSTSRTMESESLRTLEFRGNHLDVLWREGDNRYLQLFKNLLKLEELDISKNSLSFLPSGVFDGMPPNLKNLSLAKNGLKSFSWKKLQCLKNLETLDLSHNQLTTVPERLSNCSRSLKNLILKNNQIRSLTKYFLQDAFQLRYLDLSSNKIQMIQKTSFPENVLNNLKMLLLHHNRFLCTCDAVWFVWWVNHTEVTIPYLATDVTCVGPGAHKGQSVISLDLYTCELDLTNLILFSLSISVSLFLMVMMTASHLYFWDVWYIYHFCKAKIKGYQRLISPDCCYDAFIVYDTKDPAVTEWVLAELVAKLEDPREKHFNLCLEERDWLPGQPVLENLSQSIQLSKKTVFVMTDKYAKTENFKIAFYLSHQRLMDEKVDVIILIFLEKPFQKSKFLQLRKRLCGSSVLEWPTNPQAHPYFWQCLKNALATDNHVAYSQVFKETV

[1] = read-out: TLR8 IC50, HEK-Blue cells overexpressing human TLR8, R848 15.9 μM
[2] = read-out: TLR9 IC50, HEK-Blue cells overexpressing human TLR9, ODN2006 5 nM
[3] = HEK-Blue cells overexpressing human TLR7, gardiquimod 7.5 μM
[4] = read-out: TLR8 IC50, HEK-Blue cells, R848 15.9 μM
[5] = read-out: TLR9 IC50, HEK-Blue cells, ODN2006 5 nM
[6] = HEK-Blue cells, gardiquimod 7.5 μM

Row | Compound | IC50 (human TLR8; [1]) [nM] | IC50 (human TLR9; [2]) [nM] | IC50 (human TLR7; [3]) [nM] | IC50 (human TLR8; [4]) [nM] | IC50 (human TLR9; [5]) [nM] | IC50 (human TLR7; [6]) [nM] | IC50 (human TLR8; TLR8 IC50, HEK-Blue cells overexpressing human TLR8, R848 15.9 μM) [nM] | IC50 (human TLR9; TLR9 IC50, HEK-Blue cells overexpressing human TLR9, ODN2006 5 nM) [nM]
1 | CC(C)c1c(-c2ccnc(C(=O)NCC(F)(F)F)c2)[nH]c2ccc(C3CCNCC3)cc12 [Example 476, 4-(3-isopropyl-5-(piperidin-4-yl)-1H-indol-2-yl)-N-(2,2,2-trifluoroethyl) picolinamide] | 1040 | 3260 | 6070 | – | – | – | – | –
2 | Cc1cc(-c2[nH]c3ccc(C4CCN(C(=O)C5(C)COC5)CC4)cc3c2C(C)C)ccn1 [Example 596, (4-(3-isopropyl-2-(2-methylpyridin-4-yl)-1H-indol-5-yl)piperidin-1-yl)(3-methyloxetan-3-yl)methanone] | 102 | 44500 | 33.3 | – | – | – | – | –
3 | Cc1cc(-c2[nH]c3ccc(C4CCNCC4)cc3c2C(C)C)c(C)c(C)n1 [Example 39, 3-isopropyl-5-(piperidin-4-yl)-2-(2,3,6-trimethylpyridin-4-yl)-1H-indole] | 22.3 | 955 | 7.2 | – | – | – | – | –
4 | CCc1c(-c2ccnc(N)c2)[nH]c2ccc([C@@H]3CCNC[C@@H]3F)cc12 [491-A] | 110 | 354 | 156 | – | – | – | – | –
5 | Cc1cc(-c2[nH]c3ccc(C4CCN(C(=O)[C@@H]5C[C@@H](F)CN5)CC4)cc3c2C(C)C)cc(C)n1 [Example 190, (4-(2-(2,6-dimethylpyridin-4-yl)-3-isopropyl-1H-indol-5-yl)piperidin-1-yl)((2S,4R)-4-fluoropyrrolidin-2-yl)methanone] | 9.6 | 281 | 1.6 | – | – | – | – | –
6 | Cc1cc(-c2[nH]c3ccc(C4CCN(C(=O)C5CC5(F)F)CC4)cc3c2C(C)C)cc(C)n1 (stereo not drawn) [Example 108, (2,2-difluorocyclopropyl)(4-(2-(2,6-dimethylpyridin-4-yl)-3-isopropyl-1H-indol-5-yl)piperidin-1-yl)methanone] | 103 | 33100 | 7.4 | – | – | – | – | –
7 | COCCNCC(=O)N1CCC(c2ccc3[nH]c(-c4cc(C)nc(C)c4)c(C(C)C)c3c2)CC1 [Example 346, 1-(4-(2-(2,6-dimethylpyridin-4-yl)-3-isopropyl-1H-indol-5-yl)piperidin-1-yl)-2-((2-methoxyethyl)amino)ethan-1-one] | 16.7 | 1110 | 4.3 | – | – | – | – | –
8 | Cc1cc(-c2[nH]c3cc(F)c(C4CCNCC4)cc3c2C(C)C)c(C)cn1 [Example 80, 2-(2,5-dimethylpyridin-4-yl)-6-fluoro-3-isopropyl-5-(piperidin-4-yl)-1H-indole] | 1.3 | 583 | 2.7 | – | – | – | – | –
9 | Cc1cc(-c2[nH]c3ccc(C4CCN(CC#N)CC4)cc3c2C(C)C)cc(C)n1 [Example 312, 2-(4-(2-(2,6-dimethylpyridin-4-yl)-3-isopropyl-1H-indol-5-yl)piperidin-1-yl)acetonitrile] | 14 | 1390 | 5.4 | – | – | – | – | –
10 | Cc1cc(-c2[nH]c3ccc(C4CCN(C5COC5)CC4)cc3c2C(C)C)cc(C)n1 [Example 452, 2-(2,6-dimethylpyridin-4-yl)-3-isopropyl-5-(1-(oxetan-3-yl)piperidin-4-yl)-1H-indole] | 16.7 | 1390 | 4.9 | – | – | – | – | –
11 | CCc1c(-c2ccnc(C)c2)[nH]c2ccc(C3CCN(C(=O)c4ccnc(F)c4)CC3)cc12 [Example 592, (4-(3-ethyl-2-(2-methylpyridin-4-yl)-1H-indol-5-yl)piperidin-1-yl)(2-fluoropyridin-4-yl)methanone] | 235 | 17100 | 276 | – | – | – | – | –
12 | CCc1c(-c2ccnc(NC(C)=O)c2)[nH]c2ccc(C3CCNCC3)cc12 [Example 68, N-(4-(3-ethyl-5-(piperidin-4-yl)-1H-indol-2-yl)pyridin-2-yl)acetamide] | 1030 | 1030 | 4190 | – | – | – | – | –
13 | Cc1c(-c2ccncc2)[nH]c2ccc(C3CCN(C4CCN(CC(C)C)CC4)CC3)cc12 [Example 782, 5-(1′-isobutyl-[1,4′-bipiperidin]-4-yl)-3-methyl-2-(pyridin-4-yl)-1H-indole] | 383 | 124 | 1310 | – | – | – | – | –
14 | CCCNCC(=O)N1CCC(c2ccc3[nH]c(-c4cc(C)nc(C)c4)c(C(C)C)c3c2)CC1 [Example 348, 1-(4-(2-(2,6-dimethylpyridin-4-yl)-3-isopropyl-1H-indol-5-yl)piperidin-1-yl)-2-(propylamino)ethan-1-one] | 11.3 | 425 | 3.6 | – | – | – | – | –
15 | Cc1cc(-c2[nH]c3cc(F)c(C4CCNCC4)cc3c2C(C)C)c(F)cn1 [Example 79, 6-fluoro-2-(5-fluoro-2-methylpyridin-4-yl)-3-isopropyl-5-(piperidin-4-yl)-1H-indole] | 2 | 1350 | 1.5 | – | – | – | – | –
16 | CN[C@@H](C)C(=O)N1CCC(c2ccc3[nH]c(-c4cc(C)nc(C)c4)c(C(C)C)c3c2)CC1 [Example 191, (S)-1-(4-(2-(2,6-dimethylpyridin-4-yl)-3-isopropyl-1H-indol-5-yl)piperidin-1-yl)-2-(methylamino)propan-1-one] | 14.4 | 317 | 3.5 | – | – | – | – | –
17 | Cc1cc(-c2[nH]c3ccc(C4CCN(C5CCN(CC(C)C)CC5)CC4)cc3c2C)ccn1 [Example 810, 5-(1′-isobutyl-[1,4′-bipiperidin]-4-yl)-3-methyl-2-(2-methylpyridin-4-yl)-1H-indole] | – | – | – | 16.2 | 19 | 145 | – | –
18 | Cc1cc(-c2[nH]c3ccc(C4CCN(CC(=O)NC5(C)COC5)CC4)cc3c2C(C)C)cc(C)n1 [Example 233, 2-(4-(2-(2,6-dimethylpyridin-4-yl)-3-isopropyl-1H-indol-5-yl)piperidin-1-yl)-N-(3-methyloxetan-3-yl)acetamide] | 6.4 | 970 | 6.3 | – | – | – | – | –
19 | Cc1cc(-c2[nH]c3ccc(C4CCN(C(=O)CN(C)C5COC5)CC4)cc3c2C(C)C)c(F)cn1 [Example 678, 1-(4-(2-(5-fluoro-2-methylpyridin-4-yl)-3-isopropyl-1H-indol-5-yl)piperidin-1-yl)-2-(methyl(oxetan-3-yl)amino)ethan-1-one] | 30.6 | > 50000 | 12.3 | – | – | – | – | –
20 | Cc1cc(-c2[nH]c3ccc(C4CCN(Cc5ccnn5C)CC4)cc3c2C(C)C)cc(C)n1 [Example 461, 2-(2,6-dimethylpyridin-4-yl)-3-isopropyl-5-(1-((1-methyl-1H-pyrazol-5-yl)methyl)piperidin-4-yl)-1H-indole] | 7.5 | 621 | 9.3 | – | – | – | – | –
21 | Cc1c(-c2[nH]c3ccc(C4CCNCC4)cc3c2C(C)C)ccnc1N [Example 11, 4-(3-isopropyl-5-(piperidin-4-yl)-1H-indol-2-yl)-3-methylpyridin-2-amine] | – | – | 358 | – | – | – | 90.6 | 309
22 | Cc1cc(-c2[nH]c3ccc(C4CCN(C(=O)CN(C)CC(C)(C)O)CC4)cc3c2C(C)C)cc(C)n1 [Example 401, 1-(4-(2-(2,6-dimethylpyridin-4-yl)-3-isopropyl-1H-indol-5-yl)piperidin-1-yl)-2-((2-hydroxy-2-methylpropyl)(methyl)amino) ethan-1-one] | 53 | 1060 | 9 | – | – | – | – | –
23 | Cc1cc(-c2[nH]c3ccc(C4CCN(CC(=O)NCCC(C)(C)C)CC4)cc3c2C(C)C)cc(C)n1 [Example 236, N-(3,3-dimethylbutyl)-2-(4-(2-(2,6-dimethylpyridin-4-yl)-3-isopropyl-1H-indol-5-yl)piperidin-1-yl)acetamide] | 67.2 | 2090 | 46.5 | – | – | – | – | –
24 | Cc1cc(-c2[nH]c3ccc(C4CCN(CC(=O)N(C)CC(O)c5ccccc5)CC4)cc3c2C(C)C)cc(C)n1 (stereo not drawn) [Example 296, 2-(4-(2-(2,6-dimethylpyridin-4-yl)-3-isopropyl-1H-indol-5-yl)piperidin-1-yl)-N-(2-hydroxy-2-phenylethyl)-N-methylacetamide] | 46.2 | 553 | 10.5 | – | – | – | – | –
25 | Cc1cc(-c2[nH]c3ccc(C4CCN(CC5CCCCC5)CC4)cc3c2C(C)C)cc(C)n1 [Example 328, 5-(1-(cyclohexylmethyl)piperidin-4-yl)-2-(2,6-dimethylpyridin-4-yl)-3-isopropyl-1H-indole] | 77.1 | 7220 | 49.8 | – | – | – | – | –
26 | Cc1cc(-c2[nH]c3ccc(C4CCN(C(=O)c5c(C)noc5C)CC4)cc3c2C(C)C)cc(C)n1 [Example 119, (3,5-dimethylisoxazol-4-yl)(4-(2-(2,6-dimethylpyridin-4-yl)-3-isopropyl-1H-indol-5-yl)piperidin-1-yl) methanone] | 96.1 | 5440 | 6.9 | – | – | – | – | –
27 | Cc1cc(-c2[nH]c3ccc(C4CCN(CC5CC5)CC4)cc3c2C(C)C)c(C)cn1 [Example 871, 5-(1-(cyclopropylmethyl)piperidin-4-yl)-2-(2,5-dimethylpyridin-4-yl)-3-isopropyl-1H-indole] | – | – | – | 3.2 | 1840 | 10 | – | –
28 | Cc1cc(-c2[nH]c3ccc(C4CCN(C5CCCNC5)CC4)cc3c2C(C)C)ccn1 (stereo not drawn) [Example 703, 5-([1,3′-bipiperidin]-4-yl)-3-isopropyl-2-(2-methylpyridin-4-yl)-1H-indole] | 1.8 | 526 | 8.8 | – | – | – | – | –
29 | Cc1cc(-c2[nH]c3ccc(C4CCN(C(=O)C5CC(=O)N(C)C5)CC4)cc3c2C(C)C)cc(C2CC2)n1 (stereo not drawn) [Example 507, 4-(4-(2-(2-cyclopropyl-6-methylpyridin-4-yl)-3-isopropyl-1H-indol-5-yl)piperidine-1-carbonyl)-1-methylpyrrolidin-2-one] | 346 | 19000 | 52 | – | – | – | – | –
